Experimental data as given in US12227721B2, “Hydrofluorothioethers and methods of using same” (3M INNOVATIVE PROPERTIES COMPANY, priority 2020, dated 2025).

How the values were obtained:
[1] = Largest Soluble Hydrocarbon (LSH); type: physicochemical; settings: test material to hydrocarbon ratio approximately 1:1 to 1:2 by weight, no haze to the naked eye
Description: Largest Soluble Hydrocarbon (LSH): The LSH of each hydrofluorothioether and competitive example was determined by mixing the compound with hydrocarbons of varying molecular weight (CnH2n+2, where n=9 to 24) in a test material to hydrocarbon ratio of approximately 1:1 to 1:2 by weight at room temperature (23° C.) and at 50° C. […] A larger value of n is interpreted herein to indicate a greater ability of the hydrofluorothioether to clean hydrocarbons.
Table 2 summarizes results of Largest Soluble Hydrocarbon (LSH) testing of Examples 1-3 and Comparative Examples CE1-CE5.

[2] = Atmospheric lifetime from relative rate studies with hydroxyl radicals; type: physicochemical; settings: rate of reaction with hydroxyl radicals relative to CH3Cl reference
Description: Atmospheric Lifetime and Global Warming Potential (GWP): The atmospheric lifetime of each test material was determined from relative rate studies utilizing chloromethane (CH3Cl) as a reference compound. The pseudo-first order reaction rates of the reference compound and the test compound with hydroxyl radicals (·OH) was determined in a laboratory chamber system. The atmospheric lifetime of the reference compound is documented in the literature. Based on this value and the pseudo-first order rates measured in the chamber experiments, the atmospheric lifetime for each specimen was calculated from the reaction rates for the test compound relative to the reference compounds and the reported lifetime of the reference compounds as shown below:
[formula] where τx is the atmospheric lifetime of test material, τr is the atmospheric lifetime of the reference compound, and kx and kr are the rate constants for the reaction of hydroxyl radical with test material and the reference compound, respectively. The concentrations of gases in the test chamber were quantified by Fourier transform infrared spectroscopy (FTIR). The measured atmospheric lifetime value of each fluid was subsequently used for the GWP calculation.

rats = test: Repeat dose inhalation toxicity in rats; type: in vivo; settings: 3 male rats, 750 ppm, 6-hour/day, five day repeated exposure
Description: Toxicity: The repeat dose inhalation toxicity in rats was determined by a five day repeated exposure of 3 male rats to 750 ppm of the test compound for 6 hours per day.
The repeat dose inhalation toxicity in rats was determined by a five day repeated exposure of 3 male rats to 750 ppm (6-hour/day) of Example 2.

Row | SMILES | LSH (n in CnH2n+2) ([1]; 23° C.) | LSH (n in CnH2n+2) ([1]; 50° C.) | Atmospheric Lifetime [2] [years] | clinical signs of toxicity, body weights, organ weights (rats) | histopathological effects in respiratory tract, liver, kidneys (rats)
1 | CSC(F)(C(F)(F)F)C(F)(F)F [Example 2, perfluoroisopropyl methyl thioether] | 18 | >23 | 0.01 | no adverse clinical signs of toxicity, changes in body weights, or organ weights (lungs, liver, and kidneys) | No adverse histopathological effects were observed in the respiratory tract, liver, or kidneys
2 | CSC(F)(F)C(F)(F)C(F)(F)C(F)(F)F [Example 1, n-C4F9—S—CH3] | 18 | 21 |  |  | 

More lines, main results first:

Row | LSH (n in CnH2n+2) ([1]; 23° C.) | LSH (n in CnH2n+2) ([1]; 50° C.) | SMILES | Atmospheric Lifetime [2] [years] | clinical signs of toxicity, body weights, organ weights (rats) | histopathological effects in respiratory tract, liver, kidneys (rats)
3 | 14 | 17 | FC(F)(F)CC(F)(F)CCl [CE5] |  |  | 
4 | 9 | 9 | COC(F)(F)C(F)(F)C(F)(F)C(F)(F)F [CE1, n-C4F9—O—CH3] |  |  | 
5 | 10 | 10 | COC(F)(F)C(F)(F)C(F)(F)F [CE2, CF3(CF2)2—O—CH3] | 5.0 |  | 
